Values of other authors, collected in article PMC11240924, “Isolation, Identification, and Biological Activities of a New Chlorin e6 Derivative” (International Journal of Molecular Sciences, 2024).

Test system: ICR mice
Set-up: method as in PMID 30609768
Settings: chlorin e6, greatly declined at 24 h; cited from earlier work

Compound: C=Cc1c(C)c2cc3nc(c(CC(=O)O)c4[nH]c(cc5nc(cc1[nH]2)C(C)=C5CC)c(C)c4C(=O)O)[C@@H](CCC(=O)O)[C@@H]3C [chlorin e6]
- time of maximum fluorescence intensity post injection: 0 h
